PMC10464297, “Reevaluation of bromodomain ligands targeting BAZ2A” (Protein Science : A Publication of the Protein Society, 2023)

Experiments:
BAZ2B bromodomain = target: T1, BAZ2B bromodomain (Homo sapiens, UniProt Q9UIF8); experiment: AlphaScreen binding competition, BAZ2B bromodomain; conditions: for % residual binding BAZ2B (100 μM): compound at 100 μM
T1 construct: BAZ2A and BAZ2B bromodomains were produced; made in house
T1 sequence (Q9UIF8 2060-2164 limits assumed): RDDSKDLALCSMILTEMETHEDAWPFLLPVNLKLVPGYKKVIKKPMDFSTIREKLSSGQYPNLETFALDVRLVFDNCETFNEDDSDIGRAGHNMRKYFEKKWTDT
Source text: (§1) BAZ2A and BAZ2B bromodomains were produced and their activity evaluated by AlphaScreen as previously reported (Dalle Vedove et al., [2018]; Spiliotopoulos et al., [2017]). BAZ2A bromodomain was crystallized as detailed in an earlier work (Spiliotopoulos et al., [2017]). Diffraction data were collected at the Elettra Synchrotron Light Source (Trieste, Italy), XRD1 and XRD2 beamlines, and the European Synchrotron Radiation Facility (ESRF, Grenoble, France), ID30A‐1/MASSIF‐1 beamline. Data were processed and structures were solved as described elsewhere (Dalle Vedove et al., [2018]). Chemical synthesis of compounds UP39 and UZH23 has already been reported (Unzue et al., [2016]; Zhu et al., [2018]). A detailed description of cell culture methods and ITC protocol is provided in the Supporting Information.
(§2) Figure S3. AlphaScreen competition binding assay for compounds UP39 and UZH23. The specific binding to the acetylated peptide relative to the control DMSO (y-axis) is plotted against the corresponding compound concentration in µM in log10 scale (x-axis).
(§3) (1 picture or pasted object on this page, not shown here)

CBP bromodomain = conditions: ref Zhu et al., [2018]; read-out: K D CBP bromodomain; cited from earlier work
BAZ2A bromodomain [1] = target: T2, BAZ2A bromodomain (Homo sapiens, UniProt Q9UIF9); experiment: Screening by co‐crystallization with BAZ2A bromodomain; type: binding
T2 construct: BAZ2A and BAZ2B bromodomains were produced; made in house
T2 sequence (Q9UIF9 1793-1897 limits assumed): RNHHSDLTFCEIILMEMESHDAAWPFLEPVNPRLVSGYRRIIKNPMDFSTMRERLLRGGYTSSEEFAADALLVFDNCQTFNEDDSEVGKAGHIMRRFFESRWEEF
Source text: as §1

BAZ2A bromodomain [2] = target: T2, BAZ2A bromodomain; experiment: AlphaScreen binding competition, BAZ2A bromodomain; conditions: for % residual binding BAZ2A (100 μM): compound at 100 μM
Source text: as §1, §2, §3

BAZ2A bromodomain [3] = target: T2, BAZ2A bromodomain; experiment: Isothermal titration calorimetry (ITC) on BAZ2A; type: binding
Source text: It is worth noticing however that these values may be slightly overestimated. The presence of 0.25% DMSO in the ITC experiments leads to less favorable K D values as DMSO competes for binding to the conserved Asn (Lolli & Battistutta, [2013]; Navratilova et al., [2016]). […] Indeed, the change in sign of the entropic term observed for TP‐238 binding to BAZ2A (compared to BPTF and CECR2) closely resembles the effect reported for crotonyllysine binding to the TAF1 bromodomain (compared to Kac), also displacing an additional water molecule from the binding pocket (Flynn et al., [2015]). […]
Isothermal Titration Calorimetry
ITC experiments were performed using an MicroCal PEAQ-IT C microcalorimeter (Malvern Panalytical, UK) at 25°C with a stirring speed of 750 rpm in 20mM Tris pH 7. 8, 0. 2 M NaCl, 0. 2 mM TCEP and 0. 25% DMSO. For each experiment, one 0. 4 µl injection followed by eighteen 2 µl injections have been performed, with 150 seconds separating each injectio n. The inhibitors were tested at 70 µM in the cell with His -Baz2A in the syringe at 1 mM. A blank run with only the buffer was carried out (Suppl. Fig. S6). Data analysis was done with PE A Q-ITC Analysis software , fitting the curve with the ‘one site’ model.

BRD1 = target: BRD1; parameters: method as in Humphreys et al., [2017]; conditions: lower potency than on PCAF/GCN5; ref Humphreys et al., [2017]; read-out: potency on BRD1 bromodomain; cited from earlier work
PCAF = target: PCAF; parameters: method as in Humphreys et al., [2017]; conditions: ref Humphreys et al., [2017]; read-out: K D PCAF bromodomain; cited from earlier work
BRPF3 = target: BRPF3; parameters: method as in Humphreys et al., [2017]; conditions: lower potency than on PCAF/GCN5; ref Humphreys et al., [2017]; read-out: potency on BRPF3 bromodomain; cited from earlier work
BRPF1 = target: BRPF1; parameters: method as in Humphreys et al., [2017]; conditions: lower potency than on PCAF/GCN5; ref Humphreys et al., [2017]; read-out: potency on BRPF1 bromodomain; cited from earlier work
GCN5 = target: GCN5; parameters: method as in Humphreys et al., [2017]; conditions: ref Humphreys et al., [2017]; read-out: K D GCN5 bromodomain; cited from earlier work
TAF1 = test system: TAF1; parameters: method as in Bamborough et al., [2016]; conditions: relative to ATAD2; ref Bamborough et al., [2016]; cited from earlier work
ATAD2 bromodomains = test system: ATAD2 bromodomains; parameters: method as in Bamborough et al., [2016]; conditions: ref Bamborough et al., [2016]; cited from earlier work
TAF1L = conditions: relative to ATAD2; ref Bamborough et al., [2016]; cited from earlier work

Compound	IC50 (BAZ2B bromodomain; AlphaScreen) [nM]	% residual binding BAZ2B (100 μM) (BAZ2B bromodomain) [%]	Kd (CBP bromodomain) [nM]	located in BAZ2A Kac pocket by co‐crystallization (BAZ2A bromodomain [1])	IC50 (BAZ2A bromodomain [2]; AlphaScreen) [nM]	% residual binding BAZ2A (100 μM) (BAZ2A bromodomain [2]) [%]	Kd (BAZ2A bromodomain [3]; 25°C, 0.25% DMSO, read-out: K D BAZ2A) [nM]	TΔS (BAZ2A bromodomain [3]; BAZ2A) [kcal/mol]	ΔG (BAZ2A bromodomain [3]; BAZ2A) [kcal/mol]	ΔH (BAZ2A bromodomain [3]; BAZ2A) [kcal/mol]	N (sites) (BAZ2A bromodomain [3]; BAZ2A, one site model)	Kd (BRD1) [nM]	Kd (PCAF) [nM]	Kd (BRPF3) [nM]	Kd (BRPF1) [nM]	Kd (GCN5) [nM]	affinity for TAF1 bromodomain (TAF1)	binding to ATAD2 bromodomains (ATAD2 bromodomains)	affinity for TAF1L bromodomain (TAF1L)
CCOc1ccc(C(C)=O)cc1NC(=O)c1ccc(OCCN2CCNCC2)c(C(=O)OC)c1 [UP39]	73000 ± 5000	42 ± 6	1400	located in the BAZ2A Kac pocket	61000 ± 4000	36 ± 5													
CN1C[C@H](Nc2cnn(C)c(=O)c2Br)C[C@H](c2ccccc2)C1 [GSK4027]		70 ± 3		located in the BAZ2A Kac pocket		77 ± 5	165000 ± 8000	-5.8	-5.2	-11.0 ± 0.3	1	100 to 150	1.4	100 to 150	100 to 150	1.4			
CO[C@H]1CNC[C@@H](OCC2CCC(F)(F)CC2)[C@@H]1Nc1ncc(-c2cncc(C)c2)c2cc(C)c(=O)[nH]c12 [GSK8814]		86 ± 2		inability to act as BAZ2A inhibitors		88 ± 3											lower affinity	potent nanomolar binder	lower affinity
